Test results taken from ChEMBL document CHEMBL1201862, “PubChem BioAssay data set” (2004).
Blank lines part the entries; values can stand above or below the compound they belong to. The source made the active and inactive calls.

Tests used:
[1] = target: SUMO-activating enzyme (Homo sapiens, UniProt Q9UBT2); experiment: blockers of UBC9-mediated SUMO conjugation – biochemical, AlphaScreen, SUMOylation inhibitor project, confirmation (AID 2018); type: functional
[2] = target: T1, Runt-related transcription factor 1/Core-binding factor subunit beta (Homo sapiens, UniProt Q01196+Q13951); experiment: disruptors of Runt domain/CBFb-SMMHC interaction – biochemical, FRET, Cerulean-Runt, Venus-CBFb-SMMHC, uHTS, […] (AID 1434); type: protein assay
T1 sequence (Q01196 whole entry, the tested form may be a part): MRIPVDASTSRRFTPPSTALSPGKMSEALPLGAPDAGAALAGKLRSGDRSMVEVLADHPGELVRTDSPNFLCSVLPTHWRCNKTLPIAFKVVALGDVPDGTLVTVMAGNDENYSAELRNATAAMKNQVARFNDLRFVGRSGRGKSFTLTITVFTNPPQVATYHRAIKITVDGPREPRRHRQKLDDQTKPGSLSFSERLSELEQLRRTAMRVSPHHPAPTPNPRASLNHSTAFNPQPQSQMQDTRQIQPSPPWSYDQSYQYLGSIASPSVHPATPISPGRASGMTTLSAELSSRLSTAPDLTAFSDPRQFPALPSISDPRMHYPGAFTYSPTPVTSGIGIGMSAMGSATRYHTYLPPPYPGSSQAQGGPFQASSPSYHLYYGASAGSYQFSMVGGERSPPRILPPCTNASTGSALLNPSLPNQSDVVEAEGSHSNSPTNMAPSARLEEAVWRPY
T1 sequence (Q13951 whole entry, the tested form may be a part): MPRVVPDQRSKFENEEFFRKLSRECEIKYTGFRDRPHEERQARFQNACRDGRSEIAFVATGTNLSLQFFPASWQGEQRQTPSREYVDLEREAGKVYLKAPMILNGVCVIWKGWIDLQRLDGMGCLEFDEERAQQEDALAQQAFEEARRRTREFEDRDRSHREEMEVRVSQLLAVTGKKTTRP

[3] = target: T1, Runt-related transcription factor 1/Core-binding factor subunit beta; experiment: Runt domain/CBFb-SMMHC interaction disruptors – biochemical, TR-FRET (AID 1438); type: protein assay
[4] = viability of PTEN-deleted HCT116 cells – cell-based, HCT116 PTEN knockout, dose response (AID 1047); type: functional;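 note: HCT116 colon tumor cells with PTEN knocked out; cells exposed to compound for 60 hours before readout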
[5] = viability of HCT116 lacking mutant beta-catenin – cell-based, human colon tumor, dose response (AID 1045); type: functional;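 note: HCT116 colon tumor cells with beta catenin knocked out; cells exposed to compound for 60 hours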
[6] = target: T2, Microphthalmia-associated transcription factor (Homo sapiens, UniProt O75030); experiment: reducers of TRPM1 reporter luminescence, concentration series – cell-based, SK-MEL-5, cherry-picked, set 3, MITF inhibitor project, dose response (AID 493073); type: functional;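 note: SK-MEL-5 melanoma cells with luciferase driven by the MITF target TRPM1 promoter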
T2 sequence (O75030 whole entry): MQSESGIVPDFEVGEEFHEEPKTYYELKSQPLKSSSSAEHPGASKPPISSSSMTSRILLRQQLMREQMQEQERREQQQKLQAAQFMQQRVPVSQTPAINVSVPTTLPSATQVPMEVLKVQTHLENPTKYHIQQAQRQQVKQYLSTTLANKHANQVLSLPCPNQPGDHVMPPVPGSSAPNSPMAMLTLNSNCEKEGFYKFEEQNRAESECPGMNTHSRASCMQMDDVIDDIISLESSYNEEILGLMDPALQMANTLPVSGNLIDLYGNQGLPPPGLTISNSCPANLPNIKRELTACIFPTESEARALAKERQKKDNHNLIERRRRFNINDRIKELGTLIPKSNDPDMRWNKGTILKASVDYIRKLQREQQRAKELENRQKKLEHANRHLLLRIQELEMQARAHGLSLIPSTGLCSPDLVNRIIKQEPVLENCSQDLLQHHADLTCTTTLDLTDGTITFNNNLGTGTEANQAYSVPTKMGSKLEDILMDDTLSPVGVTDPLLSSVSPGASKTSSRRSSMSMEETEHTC

[7] = system: CHO; experiment: CHO cell viability loss, potency – luminescence, cytotoxicity control for TLR9-MyD88 binding inhibitor project, dose response (AID 588339); type: functional, cell-based, hamster; details: Cricetulus griseus;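 note: CHO cells stably coexpressing TLR9 and MyD88 fusions from primary screen; compound exposure lasted 48 hours before viability readout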
[8] = target: Beta Lactamase (Pseudomonas aeruginosa, UniProt Q932Y6); experiment: BLA reporter interference, concentration series – BLA reporter cells, FRET fluorescence, artefact control for TLR9-MyD88 binding inhibitor project, dose response (AID 588341); type: cell-based;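 note: cell based assay in CHO-K1 cells stably expressing beta-lactamase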
[9] = target: Kallikrein-7 (Homo sapiens, UniProt P49862); experiment: Fluorescence Intensity-based biochemical primary high throughput dose response assay to identify activators of kallikrein-7 (K7) zymogen.
[10] = target: T3, G-protein coupled receptor 35 (Homo sapiens, UniProt Q9HC97); experiment: SAR analysis of Agonists of the GPR35 Receptor using an Image-Based Assay - Set 4. [Related pubchem assays (depositor defined):AID2013, AID2026]; type: functional
T3 sequence (Q9HC97 whole entry): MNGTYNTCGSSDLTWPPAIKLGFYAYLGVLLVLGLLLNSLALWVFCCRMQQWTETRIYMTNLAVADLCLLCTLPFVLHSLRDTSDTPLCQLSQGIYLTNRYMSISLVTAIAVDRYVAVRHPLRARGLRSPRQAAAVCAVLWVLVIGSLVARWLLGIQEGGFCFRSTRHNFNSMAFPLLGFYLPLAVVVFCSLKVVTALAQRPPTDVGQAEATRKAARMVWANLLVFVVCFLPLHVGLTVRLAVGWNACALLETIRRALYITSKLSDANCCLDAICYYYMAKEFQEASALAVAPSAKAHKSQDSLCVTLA

[11] = target: T4, Cannabinoid receptor 1 (Homo sapiens, UniProt P21554); experiment: SAR analysis of agonists of the Cannabinoid Receptor 1 using an Image-Based Assay - Set 4. [Related pubchem assays (depositor defined):AID2013, AID2026]; type: functional
T4 sequence (P21554 whole entry): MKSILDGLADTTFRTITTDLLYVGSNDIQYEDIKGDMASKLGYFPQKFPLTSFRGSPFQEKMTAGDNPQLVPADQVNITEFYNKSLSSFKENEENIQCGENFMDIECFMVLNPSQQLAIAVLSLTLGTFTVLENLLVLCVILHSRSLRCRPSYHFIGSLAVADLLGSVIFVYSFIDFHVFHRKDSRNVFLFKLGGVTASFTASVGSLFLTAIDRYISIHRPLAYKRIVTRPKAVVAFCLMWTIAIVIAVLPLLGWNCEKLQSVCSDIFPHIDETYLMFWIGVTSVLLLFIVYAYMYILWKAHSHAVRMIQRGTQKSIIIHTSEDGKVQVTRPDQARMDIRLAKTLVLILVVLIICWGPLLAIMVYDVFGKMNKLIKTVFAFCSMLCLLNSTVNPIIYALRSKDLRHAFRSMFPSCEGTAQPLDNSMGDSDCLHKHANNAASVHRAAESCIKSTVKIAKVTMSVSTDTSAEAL

[12] = target: T3, G-protein coupled receptor 35; experiment: SAR analysis of Antagonists of the GPR35 Receptor using an Image-Based Assay - Set 6. [Related pubchem assays (depositor defined):AID2013, AID2026]; type: functional
[13] = target: T4, Cannabinoid receptor 1; experiment: SAR analysis of antagonists of the Cannabinoid Receptor 1 using an Image-Based Assay - Set 4. [Related pubchem assays (depositor defined):AID2013, AID2026]; type: functional
[14] = target: G-protein coupled receptor 55 (Homo sapiens, UniProt Q9Y2T6); experiment: SAR Analysis of Selective Antagonists of GPR55 using an Image-Based Assay - Set 4. [Related pubchem assays (depositor defined):AID2013, AID2026]; type: functional;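 note: antagonism of response to 5 µM lysophosphatidylinositol agonist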
Sequence of G-protein coupled receptor 55 (Q9Y2T6 whole entry): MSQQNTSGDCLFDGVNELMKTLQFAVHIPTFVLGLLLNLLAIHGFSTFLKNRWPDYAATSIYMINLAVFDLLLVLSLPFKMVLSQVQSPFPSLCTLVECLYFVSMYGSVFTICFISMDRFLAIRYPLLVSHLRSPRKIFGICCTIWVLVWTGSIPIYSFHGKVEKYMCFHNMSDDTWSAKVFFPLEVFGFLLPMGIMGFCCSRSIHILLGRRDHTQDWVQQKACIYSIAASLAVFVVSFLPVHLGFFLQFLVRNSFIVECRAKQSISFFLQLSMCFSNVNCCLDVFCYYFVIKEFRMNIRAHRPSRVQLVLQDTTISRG

[15] = target: T5, Cannabinoid receptor 2 (Homo sapiens, UniProt P34972); experiment: SAR analysis of antagonists of the Cannabinoid Receptor 2 using an Image-Based Assay - Set 3. [Related pubchem assays (depositor defined):AID2013, AID2026]; type: functional
T5 sequence (P34972 whole entry): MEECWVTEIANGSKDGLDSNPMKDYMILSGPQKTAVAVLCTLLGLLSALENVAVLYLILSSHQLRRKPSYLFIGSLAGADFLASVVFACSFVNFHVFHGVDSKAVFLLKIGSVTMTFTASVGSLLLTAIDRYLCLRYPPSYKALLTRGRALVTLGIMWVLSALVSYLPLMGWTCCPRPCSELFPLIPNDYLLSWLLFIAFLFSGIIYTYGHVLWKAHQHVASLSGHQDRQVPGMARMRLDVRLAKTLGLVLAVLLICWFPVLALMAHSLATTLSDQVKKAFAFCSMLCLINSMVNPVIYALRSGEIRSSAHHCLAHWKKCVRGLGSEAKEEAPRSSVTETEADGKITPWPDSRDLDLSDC

[16] = target: T5, Cannabinoid receptor 2; experiment: SAR analysis of agonists of the Cannabinoid Receptor 2 using an Image-Based Assay - Set 3. [Related pubchem assays (depositor defined):AID2013, AID2026]; type: functional
[17] = target: Cytochrome P450 2C19 (Homo sapiens, UniProt P33261); experiment: Cytochrome panel assay with activity outcomes. Panel member name: p450-cyp2c19 Compounds with AC50 equal or less than 10 uM are considered active; type: functional; details: read-out: AC50
Sequence of Cytochrome P450 2C19 (P33261 whole entry): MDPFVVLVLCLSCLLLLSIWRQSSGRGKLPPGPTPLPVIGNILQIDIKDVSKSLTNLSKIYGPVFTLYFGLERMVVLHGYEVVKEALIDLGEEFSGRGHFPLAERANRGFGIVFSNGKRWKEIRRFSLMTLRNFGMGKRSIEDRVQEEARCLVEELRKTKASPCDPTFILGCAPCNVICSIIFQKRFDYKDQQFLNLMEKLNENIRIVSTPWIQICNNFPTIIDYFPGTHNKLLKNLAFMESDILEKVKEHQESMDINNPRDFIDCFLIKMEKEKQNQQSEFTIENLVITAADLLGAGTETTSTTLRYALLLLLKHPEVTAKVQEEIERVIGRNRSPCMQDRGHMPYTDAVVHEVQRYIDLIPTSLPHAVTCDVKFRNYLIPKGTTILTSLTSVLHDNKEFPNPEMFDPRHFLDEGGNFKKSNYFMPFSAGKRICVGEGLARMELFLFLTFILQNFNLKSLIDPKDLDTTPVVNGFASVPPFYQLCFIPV

[18] = target: Cytochrome P450 2D6 (Homo sapiens, UniProt P10635);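 note: CYP2D6 member of a cytochrome P450 panel assay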
Sequence of Cytochrome P450 2D6 (P10635 whole entry): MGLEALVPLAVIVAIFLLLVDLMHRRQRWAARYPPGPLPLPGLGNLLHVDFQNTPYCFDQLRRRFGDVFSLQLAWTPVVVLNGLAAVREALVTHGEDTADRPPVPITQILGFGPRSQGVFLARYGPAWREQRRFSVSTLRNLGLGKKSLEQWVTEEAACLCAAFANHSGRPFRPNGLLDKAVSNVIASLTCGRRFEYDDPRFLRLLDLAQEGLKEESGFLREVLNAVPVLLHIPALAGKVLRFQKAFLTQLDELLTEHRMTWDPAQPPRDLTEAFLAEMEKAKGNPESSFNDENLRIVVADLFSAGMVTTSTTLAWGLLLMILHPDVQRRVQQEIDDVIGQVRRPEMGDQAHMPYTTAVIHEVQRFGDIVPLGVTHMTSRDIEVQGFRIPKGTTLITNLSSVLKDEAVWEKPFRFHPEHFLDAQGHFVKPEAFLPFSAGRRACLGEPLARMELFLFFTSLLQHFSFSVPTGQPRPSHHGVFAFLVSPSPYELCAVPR

[19] = target: Lysosomal acid glucosylceramidase (Homo sapiens, UniProt P04062); experiment: Dose response cell-based high throughput screening assay to identify enhancers of beta-glucosidase activity. [Related pubchem assays: 784 ]; type: functional
[20] = target: Mitogen-activated protein kinase 10 (Homo sapiens, UniProt P53779); experiment: Dose response biochemical screening assay for inhibitors of c-Jun N-Terminal Kinase 3 (JNK3). [Related pubchem assays: 746 ]
[21] = target: T6, Coagulation factor XII (Homo sapiens, UniProt P00748); experiment: Factor XIIa Dose Response Confirmation from Single Well HTS. [Related pubchem assays (depositor defined):AID701]; type: functional
T6 sequence (P00748 whole entry): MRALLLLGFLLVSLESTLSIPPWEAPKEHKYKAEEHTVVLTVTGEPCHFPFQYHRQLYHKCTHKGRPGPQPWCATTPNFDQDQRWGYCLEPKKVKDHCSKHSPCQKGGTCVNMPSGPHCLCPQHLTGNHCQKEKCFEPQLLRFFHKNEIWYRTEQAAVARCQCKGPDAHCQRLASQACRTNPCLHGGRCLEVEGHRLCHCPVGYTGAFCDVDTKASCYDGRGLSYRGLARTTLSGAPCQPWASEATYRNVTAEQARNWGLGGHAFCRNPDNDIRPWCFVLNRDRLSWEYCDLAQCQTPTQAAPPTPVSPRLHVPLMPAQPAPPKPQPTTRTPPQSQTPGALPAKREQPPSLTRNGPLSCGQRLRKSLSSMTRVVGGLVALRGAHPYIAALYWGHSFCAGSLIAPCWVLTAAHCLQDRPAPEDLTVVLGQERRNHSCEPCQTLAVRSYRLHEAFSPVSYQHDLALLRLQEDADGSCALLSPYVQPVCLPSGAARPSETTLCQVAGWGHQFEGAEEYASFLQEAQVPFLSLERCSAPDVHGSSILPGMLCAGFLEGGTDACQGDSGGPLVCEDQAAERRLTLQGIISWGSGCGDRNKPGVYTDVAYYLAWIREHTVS

[22] = target: T7, Type-1 angiotensin II receptor (Homo sapiens, UniProt P30556); experiment: agonist activity at AGTR1 – cell-based, uHTS hits, selectivity assay for APJ receptor agonist project, dose response (AID 488865); type: functional;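 note: beta-arrestin recruitment to AT1 measured by enzyme fragment complementation luminescence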
T7 sequence (P30556 whole entry): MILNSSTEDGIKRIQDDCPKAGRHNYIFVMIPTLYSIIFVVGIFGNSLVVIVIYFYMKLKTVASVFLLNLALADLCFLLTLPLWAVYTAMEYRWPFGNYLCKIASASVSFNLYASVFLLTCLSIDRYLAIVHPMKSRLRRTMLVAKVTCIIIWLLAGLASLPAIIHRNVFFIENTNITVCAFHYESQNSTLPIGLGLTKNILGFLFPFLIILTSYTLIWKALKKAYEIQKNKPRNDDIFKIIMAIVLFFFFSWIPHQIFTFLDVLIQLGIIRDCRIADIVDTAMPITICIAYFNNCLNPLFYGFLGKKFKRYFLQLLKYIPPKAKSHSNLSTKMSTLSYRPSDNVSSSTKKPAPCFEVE

[23] = target: T8, E3 ubiquitin-protein ligase XIAP (Homo sapiens, UniProt P98170); experiment: Counter Screen using XIAP-Bir3 for Chemical Antagonists of Bir1/2 domains of IAP-family anti-apoptotic proteins. [Related pubchem assays (depositor defined):AID1018, AID1449, AID1514, AID1638, AID1749, AID1750, AID488957, AID488963]
T8 sequence (P98170 whole entry): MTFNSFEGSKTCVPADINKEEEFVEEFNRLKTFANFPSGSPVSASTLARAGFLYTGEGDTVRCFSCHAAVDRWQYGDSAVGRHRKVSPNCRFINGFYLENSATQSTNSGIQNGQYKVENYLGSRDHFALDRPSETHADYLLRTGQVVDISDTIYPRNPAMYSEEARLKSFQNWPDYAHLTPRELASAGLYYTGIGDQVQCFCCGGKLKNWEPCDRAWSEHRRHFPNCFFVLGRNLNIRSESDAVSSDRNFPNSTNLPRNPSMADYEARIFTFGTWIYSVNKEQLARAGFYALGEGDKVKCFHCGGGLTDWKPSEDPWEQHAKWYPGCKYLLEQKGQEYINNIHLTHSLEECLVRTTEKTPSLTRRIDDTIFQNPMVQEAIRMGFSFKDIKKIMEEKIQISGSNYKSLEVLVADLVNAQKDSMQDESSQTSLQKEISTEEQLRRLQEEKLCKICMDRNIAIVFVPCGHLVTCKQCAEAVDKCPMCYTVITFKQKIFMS

[24] = target: T8, E3 ubiquitin-protein ligase XIAP; experiment: small molecules displacing peptide from XIAP – biochemical, IAP family, fluorescence polarization (AID 1018); type: functional
[25] = target: Mu-type opioid receptor (Homo sapiens, UniProt P35372); experiment: SAR Analysis of Antagonists of the MOR Receptor using an Image-Based Assay - Set 3. [Related pubchem assays (depositor defined):AID1777, AID1785, AID1786, AID1966, AID2133, AID2136, AID2284, AID2285, AID2420]; type: functional
[26] = target: T9, Kappa-type opioid receptor (Homo sapiens, UniProt P41145); experiment: SAR analysis of small molecule antagonists of the kappa opioid receptor via a luminescent beta-arrestin assay - Set 6. [Related pubchem assays (depositor defined):AID1777, AID1778, AID1785, AID1786, AID1966, AID2133, AID2136, AID2285]; type: functional
T9 sequence (P41145 whole entry): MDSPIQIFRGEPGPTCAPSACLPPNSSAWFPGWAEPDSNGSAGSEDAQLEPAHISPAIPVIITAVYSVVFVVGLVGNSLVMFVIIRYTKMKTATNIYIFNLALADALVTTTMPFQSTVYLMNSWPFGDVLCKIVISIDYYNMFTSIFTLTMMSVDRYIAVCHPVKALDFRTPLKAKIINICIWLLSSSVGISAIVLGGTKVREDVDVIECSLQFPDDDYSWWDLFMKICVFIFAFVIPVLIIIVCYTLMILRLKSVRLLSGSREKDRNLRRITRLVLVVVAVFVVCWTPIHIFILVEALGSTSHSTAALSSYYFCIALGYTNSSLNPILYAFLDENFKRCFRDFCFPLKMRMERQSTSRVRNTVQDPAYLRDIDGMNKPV

[27] = target: Delta-type opioid receptor (Homo sapiens, UniProt P41143); experiment: SAR Analysis of Antagonists of the DOR Receptor using an Image-Based Assay - Set 3. [Related pubchem assays (depositor defined):AID1777, AID1785]; type: functional;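 note: U2OS cells expressing DOR1 and beta-arrestin GFP stimulated with 100 nM SNC80; imaging of GFP-tagged beta-arrestin moving into spots after receptor activation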
[28] = target: T9, Kappa-type opioid receptor; experiment: SAR analysis of small molecule antagonists of the kappa opioid receptor via a luminescent beta-arrestin assay - Set 3. [Related pubchem assays (depositor defined):AID1777, AID1778, AID1785, AID1786, AID1966, AID2133, AID2136, AID2285, AID2495]; type: functional
[29] = target: T9, Kappa-type opioid receptor; experiment: SAR analysis of Antagonists of the Kappa Opioid Receptor (KOR) using an Image-Based Assay - Set 4. [Related pubchem assays (depositor defined):AID1777, AID1785]; type: functional
[30] = target: Voltage-dependent T-type calcium channel subunit alpha-1H (Homo sapiens, UniProt O95180); experiment: human CACNA1H calcium influx blockade – cell-based, synthetic library set 2, HEK293 HH8, Fluo-4, SAR follow-up (AID 493023); type: functional

Sequence of SUMO-activating enzyme (Q9UBE0 whole entry, the tested form may be a part): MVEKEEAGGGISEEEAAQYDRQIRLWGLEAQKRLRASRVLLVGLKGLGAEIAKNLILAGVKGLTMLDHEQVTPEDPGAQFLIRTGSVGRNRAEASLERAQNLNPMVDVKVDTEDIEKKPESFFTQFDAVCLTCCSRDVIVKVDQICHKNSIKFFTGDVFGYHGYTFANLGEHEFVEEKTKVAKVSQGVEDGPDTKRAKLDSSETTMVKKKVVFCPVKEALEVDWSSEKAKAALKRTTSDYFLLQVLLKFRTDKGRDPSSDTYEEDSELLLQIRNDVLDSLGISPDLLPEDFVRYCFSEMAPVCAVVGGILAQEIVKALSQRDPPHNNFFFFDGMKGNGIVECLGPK
Sequence of SUMO-activating enzyme (Q9UBT2 whole entry, the tested form may be a part): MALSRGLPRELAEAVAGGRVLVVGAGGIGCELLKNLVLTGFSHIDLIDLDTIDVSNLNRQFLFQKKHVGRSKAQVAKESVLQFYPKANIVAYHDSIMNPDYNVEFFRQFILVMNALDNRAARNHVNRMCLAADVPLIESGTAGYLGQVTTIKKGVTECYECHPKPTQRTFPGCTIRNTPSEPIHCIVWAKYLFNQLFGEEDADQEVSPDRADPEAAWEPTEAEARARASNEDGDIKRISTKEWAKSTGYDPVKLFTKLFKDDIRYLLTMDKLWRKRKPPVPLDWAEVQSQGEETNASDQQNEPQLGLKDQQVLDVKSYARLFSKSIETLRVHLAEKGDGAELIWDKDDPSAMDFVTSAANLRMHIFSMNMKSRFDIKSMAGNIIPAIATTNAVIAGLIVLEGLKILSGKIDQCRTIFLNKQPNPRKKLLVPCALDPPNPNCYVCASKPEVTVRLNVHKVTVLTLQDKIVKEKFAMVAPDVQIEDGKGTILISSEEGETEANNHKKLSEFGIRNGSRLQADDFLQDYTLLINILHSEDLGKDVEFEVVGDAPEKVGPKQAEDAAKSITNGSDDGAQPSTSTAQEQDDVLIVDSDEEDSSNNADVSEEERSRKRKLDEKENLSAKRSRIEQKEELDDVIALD

SMILES: COc1ccc(NC2=NC(=O)/C(=C\c3ccco3)S2)cc1
IC50 [1]: 9.8 µM (active)

SMILES: OCCNc1c2ccccc2nc2c(F)c(F)c(F)c(F)c12
IC50 [2]: 38.7 µM (active)
IC50 [3]: > 100 µM (inactive)
EC50 [4]: 3.83 µM (active)
EC50 [5]: 2.16 µM (active)
AC50 [6]: 4.14 µM (active)
IC50 [7]: 3.97 µM (active)
IC50 [8]: 2.27 µM (active)
EC50 [9]: > 69.5 µM (inactive)

SMILES: N=c1c(C(=O)NC2CCCC2)cc2c(=O)n3ccccc3nc2n1C1CCCC1
EC50 [10]: > 32 µM (inactive)
EC50 [11]: > 32 µM (inactive)
IC50 [12]: > 32 µM (inactive)
IC50 [13]: > 32 µM (inactive)
IC50 [14]: > 32 µM (inactive)
IC50 [15]: > 32 µM (inactive)
EC50 [16]: > 32 µM (inactive)
AC50 [17]: 11.2 µM (inconclusive)
AC50 [18]: 3.55 µM (inconclusive)

SMILES: CCSc1nc(O)c(CC)c(=O)n1C(C)CC (stereo not given)
EC50 [22]: > 100 µM (inactive)

Further lines, results first:

EC50 [19]: > 10 µM (not active)
IC50 [20]: 19.2 µM (not active)
IC50 [21]: 2.6 µM (active)
SMILES: COc1ccc(C(=O)n2nc(-c3ccccc3)nc2N)cc1OC

IC50 [23]: > 100 µM (inactive)
IC50 [24]: > 100 µM (not active)
SMILES: Cc1ccc(-c2cc(C(=O)NC3=NCCS3)c3ccccc3n2)cc1C

IC50 [25]: 17.2 µM (inactive)
IC50 [26]: 0.482 µM (active)
IC50 [27]: > 32 µM (inactive)
IC50 [28]: 0.369 µM (active)
IC50 [29]: 0.0451 µM (active)
SMILES: Cc1ccnc2c1n1cccc1c(=O)n2CC(=O)NCCCN1CCN(c2ccc3c(c2)OCO3)CC1

EC50 [30]: 10 µM (active)
SMILES: O=C(COc1ccc(F)cc1Cl)N[C@H]1CCCN(Cc2ccccc2)C1
